In ChEMBL document CHEMBL5724914, “Linking interpersonal differences in gut microbiota composition and drug biotransformation activity” (2024):

Experiments:
[1] = human gut metagenome, 24 h, 2 µM
[2] = human gut metagenome, 24 h, 2 µM; remark: listed apart in the source
[3] = The drug is tested on Z-019 corresponding to rat gut metagenome with ENA study accession number: PRJEB37062 and ENA sample accession number: ERS12561818 for biotransformation under anaerobic condition. The drug concentrations were measured over 9 timepoints collected between 0 and 24 hours of incubation by liquid-chromatography-coupled mass spectrometry (LC–MS); conditions: 2 µM
[4] = The drug is tested on Z-025 corresponding to rabbit gut metagenome with ENA study accession number: PRJEB37062 and ENA sample accession number: ERS12561824 for biotransformation under anaerobic condition. The drug concentrations were measured over 9 timepoints collected between 0 and 24 hours of incubation by liquid-chromatography-coupled mass spectrometry (LC–MS); conditions: 2 µM
[5] = The drug is tested on WLS-086 corresponding to human gut metagenome with ENA study accession number: PRJEB37062 and ENA sample accession number: ERS12561752 for biotransformation under anaerobic condition. The drug concentrations were measured over 9 timepoints collected between 0 and 24 hours of incubation by liquid-chromatography-coupled mass spectrometry (LC–MS); conditions: 2 µM
[6] = The drug is tested on Z-028 corresponding to mouse gut metagenome with ENA study accession number: PRJEB37062 and ENA sample accession number: ERS12561827 for biotransformation under anaerobic condition. The drug concentrations were measured over 9 timepoints collected between 0 and 24 hours of incubation by liquid-chromatography-coupled mass spectrometry (LC–MS); conditions: 2 µM
[7] = The drug is tested on Z-009 corresponding to pig gut metagenome with ENA study accession number: PRJEB37062 and ENA sample accession number: ERS12561809 for biotransformation under anaerobic condition. The drug concentrations were measured over 9 timepoints collected between 0 and 24 hours of incubation by liquid-chromatography-coupled mass spectrometry (LC–MS); conditions: 2 µM
[8] = The drug is tested on Z-020 corresponding to rabbit gut metagenome with ENA study accession number: PRJEB37062 and ENA sample accession number: ERS12561819 for biotransformation under anaerobic condition. The drug concentrations were measured over 9 timepoints collected between 0 and 24 hours of incubation by liquid-chromatography-coupled mass spectrometry (LC–MS); conditions: 2 µM
[9] = human gut metagenome, 24 h, 2 µM; remark: listed apart in the source
[10] = The drug is tested on WLS-073 corresponding to human gut metagenome with ENA study accession number: PRJEB37062 and ENA sample accession number: ERS12561749 for biotransformation under anaerobic condition. The drug concentrations were measured over 9 timepoints collected between 0 and 24 hours of incubation by liquid-chromatography-coupled mass spectrometry (LC–MS); conditions: 2 µM
[11] = The drug is tested on Z-006 corresponding to mouse gut metagenome with ENA study accession number: PRJEB37062 and ENA sample accession number: ERS12561806 for biotransformation under anaerobic condition. The drug concentrations were measured over 9 timepoints collected between 0 and 24 hours of incubation by liquid-chromatography-coupled mass spectrometry (LC–MS); conditions: 2 µM
[12] = The drug is tested on Z-017 corresponding to mouse gut metagenome with ENA study accession number: PRJEB37062 and ENA sample accession number: ERS12561816 for biotransformation under anaerobic condition. The drug concentrations were measured over 9 timepoints collected between 0 and 24 hours of incubation by liquid-chromatography-coupled mass spectrometry (LC–MS); conditions: 2 µM
[13] = The drug is tested on WLS-350 corresponding to human gut metagenome with ENA study accession number: PRJEB37062 and ENA sample accession number: ERS12561789 for biotransformation under anaerobic condition. The drug concentrations were measured over 9 timepoints collected between 0 and 24 hours of incubation by liquid-chromatography-coupled mass spectrometry (LC–MS); conditions: 2 µM
[14] = human gut metagenome, 24 h, 2 µM; remark: listed apart in the source
[15] = human gut metagenome, 24 h, 2 µM; remark: listed apart in the source
[16] = The drug is tested on Z-007 corresponding to rat gut metagenome with ENA study accession number: PRJEB37062 and ENA sample accession number: ERS12561807 for biotransformation under anaerobic condition. The drug concentrations were measured over 9 timepoints collected between 0 and 24 hours of incubation by liquid-chromatography-coupled mass spectrometry (LC–MS); conditions: 2 µM
[17] = human gut metagenome, 24 h, 2 µM; remark: listed apart in the source
[18] = The drug is tested on Z-005 corresponding to metagenome with ENA study accession number: PRJEB37062 and ENA sample accession number: ERS12561805 for biotransformation under anaerobic condition. The drug concentrations were measured over 9 timepoints collected between 0 and 24 hours of incubation by liquid-chromatography-coupled mass spectrometry (LC–MS); conditions: 2 µM
[19] = The drug is tested on Z-027 corresponding to metagenome with ENA study accession number: PRJEB37062 and ENA sample accession number: ERS12561826 for biotransformation under anaerobic condition. The drug concentrations were measured over 9 timepoints collected between 0 and 24 hours of incubation by liquid-chromatography-coupled mass spectrometry (LC–MS); conditions: 2 µM
[20] = human gut metagenome, 24 h, 2 µM; remark: listed apart in the source
Also: call rule not given here.

Compound	Bacterial Biotransformation [1]	Bacterial Biotransformation [2]	Bacterial Biotransformation [3]	Bacterial Biotransformation [4]	Bacterial Biotransformation [5]	Bacterial Biotransformation [6]	Bacterial Biotransformation [7]	Bacterial Biotransformation [8]	Bacterial Biotransformation [9]	Bacterial Biotransformation [10]	Bacterial Biotransformation [11]	Bacterial Biotransformation [12]	Bacterial Biotransformation [13]	Bacterial Biotransformation [14]	Bacterial Biotransformation [15]	Bacterial Biotransformation [16]	Bacterial Biotransformation [17]	Bacterial Biotransformation [18]	Bacterial Biotransformation [19]	Bacterial Biotransformation [20]
C[C@]12C=CC(=O)C=C1CC[C@@H]1[C@@H]2C(=O)C[C@@]2(C)[C@H]1CC[C@]2(O)C(=O)CO [PREDNISONE]	Compound metabolized	Compound metabolized	Compound NOT metabolized	Compound NOT metabolized	Compound metabolized	Compound metabolized	Compound metabolized	Compound metabolized	Compound metabolized	Compound metabolized	Compound metabolized	Compound metabolized	Compound metabolized	Compound metabolized	Compound metabolized	Compound NOT metabolized	Compound metabolized	Compound NOT metabolized	Compound NOT metabolized	Compound metabolized
CC[C@H](C)C(=O)O[C@H]1CCC=C2C=C[C@H](C)[C@H](CC[C@@H]3C[C@@H](O)CC(=O)O3)[C@H]21 [MEVASTATIN]	Compound NOT metabolized	Compound NOT metabolized	Compound NOT metabolized	Compound metabolized	Compound metabolized	Compound metabolized	Compound NOT metabolized	Compound NOT metabolized	Compound metabolized	Compound NOT metabolized	Compound NOT metabolized	Compound metabolized	Compound NOT metabolized	Compound metabolized	Compound NOT metabolized	Compound NOT metabolized	Compound metabolized	Compound NOT metabolized	Compound NOT metabolized	Compound NOT metabolized
CN(C)CCC=C1c2ccccc2COc2ccccc21 [DOXEPIN]	Compound metabolized	Compound metabolized	Compound NOT metabolized	Compound NOT metabolized	Compound NOT metabolized	Compound NOT metabolized	Compound metabolized	Compound NOT metabolized	Compound metabolized	Compound metabolized	Compound NOT metabolized	Compound NOT metabolized	Compound NOT metabolized	Compound metabolized	Compound metabolized	Compound NOT metabolized	Compound NOT metabolized	Compound NOT metabolized	Compound NOT metabolized	Compound NOT metabolized
